Measured values published in patent publication US11767313B2, “Compounds as nuclear transport modulators and uses thereof” (XWPHARMA LTD., priority 2018, dated 2023).
Where two headings read alike, the source gives them in different places.

What was measured:
U251 = test: CellTiter-Glo cell proliferation assay, U251; assay type: cell-based; settings: Homo sapiens, U-251; Table 11; read-out: Absolute IC50 (μM) U251
Protocol: (§1) CellTiter-Glo® Luminescent Cell Viability assay (with Promega CellTiter 96® Luminescent CellTiter-Glo® kit) was used to study the proliferation inhibition by test compounds. Compounds were resuspended in DMSO to make a 25 mM stock suspension. Cells of cancer cell lines or normal tissues were seeded in 96-well plates at 1,500 to 5,000 cells/well overnight. Compounds were 2- or 3-fold diluted serially to obtain 10 concentrations. Then, the drugs were added to the cell wells by Bravo (Agilent) and incubated for 72 hours. The cells were lysed by adding CellTiter-Glo® Reagent (per manufacturer's instructions) and subsequently, the luminescence was read using EnVision® (PerkinElmer).
(§2) The percent of growth was calculated as follows. DMSO-treated cells were employed as vehicle control (High control, HC) and culture medium alone was employed as background (Low control, EC). % growth=100×(Lum sample−Lum EC)/(Lum HC−Lum EC). The ICso was calculated by concentration-response curve fitting using Graphpad Prism.
(§3) Hematological cancer cell lines tested included OCI-AML3, MV-4-11, KG-1, Kasumi-1, K562, THP-1; solid cancer cell lines tested included U87MG, U251, T98G, LN229, A172, H460, H2009, A549; normal cell lines tested included HCN2 and 3T3-L1. […] However, they were not toxic to in vitro cultured normal cells.

U87MG cells = test: Capase-Glo 317 apoptosis assay; assay type: cell-based; settings: Homo sapiens, U-87 MG, 72 hours
Protocol: A Capase-Glo® 317 assay was used to determine the apoptosis activity of test compounds in U87MG cells.
Compounds were dissolved in 25 mM DMSO stock solution and serially diluted. DMSO was used as the vehicle control (high control, HC) and culture medium was used as the background (low control LC). The test compounds were applied to plates and spun at 25° C. at 1,000 RPM for 1 min and shaken on a plate shaker for 2 min. Samples (80 nL) of the compounds from the plates were transferred to 384-well cell culture plates using a liquid handler.
Cells were harvested and the cell numbers counted. 40 μL of the cell suspension with the adjusted density was added to 384-well cell culture pates. The final cell density is 1,000 cells/well. Cell culture medium only was used in the low control (LC) samples. The plates were covered with a lid and placed in a 5% CO2 incur at 37° C. for 72 hours.
After incubating for 72 hours, the plates were removed from the incubator and equilibrated at 25° C. for 15 minutes. CellTiter Glo® regen was incubated at 37° C. before the experiments. 40 μL of Capase-Glo® 317 was added into each well to be detected at a 1:1 ratio to culture medium. The plates were then placed at 25° C. for 30 min and read using an EnSpire® Plate Reader.
The % activity remaining was determined using the following formula: % Remaining Activity=[…]×(Lumsample−LumLC)/(LumHC−LUM LC), where HC is obtained from cells treated with 0.1% DMSO only, LC is obtained from culture medium only.

in vivo = settings: female, BALB/c Nude, mouse
HCN2 = test: CellTiter-Glo cell proliferation assay, HCN2 (normal brain); assay type: cell-based; settings: for IC50: read-out: HCN2 IC50
Protocol: as §1, §2, §3

LN-229 = test: CellTiter-Glo cell proliferation assay, LN-229; assay type: cell-based; settings: Homo sapiens, LN-229; Table 11; read-out: Absolute IC50 (μM) LN-229
Protocol: as §1, §2, §3

HCT116 = test: Cytotoxicity, cell proliferation assay, HCT116 colon cancer; assay type: cell-based; settings: Table 8
Protocol: as §1, §2
(§4) The cytotoxicity of test compounds in brain (HCN2), colon cancer (HCT116) and normal colon cell (C8-B4) lines was determined using the cell proliferation assay as described in Example 19.

3T3-L1 = test: CellTiter-Glo cell proliferation assay, 3T3-L1 (normal); assay type: cell-based; settings: Mus musculus, 3T3-L1; Table 6; read-out: 3T3-L1 IC50
Protocol: as §1, §2, §3

[1] = Pharmacokinetic profile summary; assay type: in vivo, mice or rats; settings: for AUC / Cmax: po
Protocol: Blood was collected from mice (n=3, or 5) to contribute to the total of 10 time points (pre-dose, 5 min, 15 min, 30 min, 1 hour, 2 hours, 4 hours, 8 hours, 12 hours and 24 hours). At the designated time points, animals were anaesthetized under isoflurane, and approximately 110 μL of blood per time point was collected via retro-orbital puncture into pre-cooled K2EDTA tubes. Blood samples were put on wet ice and centrifuged (2000 g, 5 min at 4° C.) to obtain plasma within 30 minutes of sample collection. All samples were stored frozen at approximately −80° C. until analysis. Prior to analysis, samples were mixed with internal standard in acetonitrile, vortexed, centrifuged, and supernatant was injected for analysis. Concentration of compounds in plasma was determined using LC-MS-MS instrumentation (API 4000, Triple Quadrupole LC/MS/MS Mass Spectrometer). AUC values were calculated using Phoenix Win Nonlin 6.3 software package, PO-Noncompartmental model 200 (extravascular input).
Following collection, brain tissue was rinsed with cold saline, dried on filter paper, weighed and snap-frozen by placing on dry ice. All samples were stored frozen at approximately −80° C. until analysis. At the time of analysis, brain tissue was homogenized (homogenizing solution PBS, pH 7.4), mixed with internal standard in acetonitrile, vortexed, centrifuged, and supernatant was injected for analysis. Concentration of compounds in plasma was determined using LC-MS-MS instrumentation (API 4000, Triple Quadrupole LC/MS/MS Mass Spectrometer). Plasma samples were treated with the identical method (except homogenization step) and the concentration of compound in each matrix was calculated based on generated standard curves.
The pharmacokinetic profile of test compounds in mice or rats was determined from several test compounds was determined using the methods described in Example 22.

[2] = 25 mg/kg p.o., qod x 3 per week, two weeks; BALB/c Nude mice
U87MG = test: CellTiter-Glo cell proliferation assay, U87MG; assay type: cell-based, human; settings: Homo sapiens, U-87 MG
Protocol: as §1, §2, §3

A-172 = test: CellTiter-Glo cell viability assay, A-172; assay type: cell-based; settings: Homo sapiens, Table 6
Protocol: as §1, §2
The inhibition activity of test compounds was determined in A-172, U87MG and 3T3-L1 cell lines.
A CellTiter-Glo® luminescent cell viability assay was performed s described in Example 1.

CRM1 = target: T1, CRM1 (Homo sapiens, UniProt O14980); test: PD effects by IHC in U87MG-luc orthotopic model, CRM1; assay type: in vivo, mice; settings: orally three times a week for 2 weeks; vs vehicle control
T1 construct: from tissue; host or cells: U87MG-luc orthotopic xenograft tumours in mouse brain
Protocol: (§5) Based on the bioluminescent signal of tumor, mice were randomly assigned to respective groups using a computer-generated randomization procedure, which included vehicle and compound III-treated groups, respectively, with 5 animals per group. Compound III (20 mg/kg) was given orally 3 times a week (on Day 1, 3, 5) for 2 weeks. Animals for IHC study were euthanized at 6 hours after the last dose and perfused with normal saline followed by fixation with 4% paraformaldehyde. Entire brains containing tumors were collected and kept in fixative for 24 hours before proceeding for paraffin block.

3T3 = test: Cytotoxicity, cell proliferation assay, 3T3; assay type: cell-based; settings: Mus musculus, NIH3T3; Table 9
Protocol: as §1, §2
The cytotoxicity of test compounds was also determined in glioblastoma (U87MG)), brain (HCN2) and 3T3 cell lines was determined using the cell proliferation assay as described in Example 19.

Ki67 = test: PD effects by IHC in U87MG-luc orthotopic model, Ki67; assay type: in vivo, mice; settings: orally three times a week for 2 weeks; vs vehicle control
Protocol: as §5

T98G = test: CellTiter-Glo cell proliferation assay, T98G; assay type: cell-based; settings: Homo sapiens, T98G; Table 11; read-out: Absolute IC50 (μM) T98G
Protocol: as §1, §2, §3

C8-B4 = test: Cytotoxicity, cell proliferation assay, C8-B4; assay type: cell-based; settings: Table 8
Protocol: as §1, §2, §4

H460 = test: CellTiter-Glo cell proliferation assay, H460; assay type: cell-based; settings: Homo sapiens, NCI-H460, 72 hours, Table 1, read-out: Growth inhibition (IC50)
Protocol: as §1, §2, §3

A549 = test: CellTiter-Glo cell proliferation assay, A549; assay type: cell-based; settings: Homo sapiens, 72 hours, Table 1, read-out: Growth inhibition (IC50)
Protocol: as §1, §2, §3

H2009 = test: CellTiter-Glo cell proliferation assay, H2009; assay type: cell-based; settings: Homo sapiens, NCI-H2009, 72 hours, Table 1, read-out: Growth inhibition (IC50)
Protocol: as §1, §2, §3

KG1 = test: CellTiter-Glo cell proliferation assay, KG1; assay type: cell-based; settings: Homo sapiens, KG-1, 72 hours, Table 1, read-out: Growth inhibition (IC50)
Protocol: as §1, §2, §3

MV411 = test: CellTiter-Glo cell proliferation assay, MV411; assay type: cell-based; settings: Homo sapiens, MV4-11, 72 hours, Table 1, read-out: Growth inhibition (IC50)
Protocol: as §1, §2, §3

THP-1 = test: CellTiter-Glo cell proliferation assay, THP-1; assay type: cell-based; settings: Homo sapiens, 72 hours, Table 1, read-out: Growth inhibition (IC50)
Protocol: as §1, §2, §3

Kasumi-1 = test: CellTiter-Glo cell proliferation assay, Kasumi-1; assay type: cell-based; settings: Homo sapiens, 72 hours, Table 1, read-out: Growth inhibition (IC50)
Protocol: as §1, §2, §3

OCI-AML3 = test: CellTiter-Glo cell proliferation assay, OCI-AML3; assay type: cell-based; settings: Homo sapiens, OCI-AML-3, 72 hours, Table 1, read-out: Growth inhibition (IC50)
Protocol: as §1, §2, §3

K562 = test: CellTiter-Glo cell proliferation assay, K562; assay type: cell-based; settings: Homo sapiens, 72 hours, Table 1, read-out: Growth inhibition (IC50)
Protocol: as §1, §2, §3

XPO1 = XPO1 (Homo sapiens, UniProt O14980); test: REV-GFP translocation assay in U2OS cells; assay type: cell-based; design: endogenous in cells; host or cells: U2OS cells stably expressing REV-GFP (clones from HD Biosciences)
Protocol: LTD in China, and cells were cultured with growth medium. […] The highest Leptomycin B (LMB) concentration was set to 50 nM and serially diluted as the positive control, while the highest concentrations of other compounds were set to 10 μM. The cells treated with various drugs or DMSO, were incubated at 37° C. and 5% CO2 for 1 h. Then, cells were fixed with 4% formaldehyde for 15 min at room temperature. The cells were washed and stained with 100 μL Hoechst 33342 working solution for 10 min at room temperature in dark, after which the cell fluorescence was imaged with the High-Content Imaging System, ImageXpress® (Molecular Devices) using the 20× objective. The filters were set for Hoechst (350/461 nm) and GFP/FITC (488/509 nm) (wavelength for excitation and emission maxima). The % effect of REV nuclear translocation was calculated with the following formula: % effect=([…]- signals from testing compounds; ILMB-signals of 50 nM LMB group; ICTRL-signals of vehicle control group.

[3] = 10 mg/kg, plasma, 10 mpk, read-out: Cmax (ng/ml) plasma/10 mpk

Sequence of XPO1 (O14980 whole entry): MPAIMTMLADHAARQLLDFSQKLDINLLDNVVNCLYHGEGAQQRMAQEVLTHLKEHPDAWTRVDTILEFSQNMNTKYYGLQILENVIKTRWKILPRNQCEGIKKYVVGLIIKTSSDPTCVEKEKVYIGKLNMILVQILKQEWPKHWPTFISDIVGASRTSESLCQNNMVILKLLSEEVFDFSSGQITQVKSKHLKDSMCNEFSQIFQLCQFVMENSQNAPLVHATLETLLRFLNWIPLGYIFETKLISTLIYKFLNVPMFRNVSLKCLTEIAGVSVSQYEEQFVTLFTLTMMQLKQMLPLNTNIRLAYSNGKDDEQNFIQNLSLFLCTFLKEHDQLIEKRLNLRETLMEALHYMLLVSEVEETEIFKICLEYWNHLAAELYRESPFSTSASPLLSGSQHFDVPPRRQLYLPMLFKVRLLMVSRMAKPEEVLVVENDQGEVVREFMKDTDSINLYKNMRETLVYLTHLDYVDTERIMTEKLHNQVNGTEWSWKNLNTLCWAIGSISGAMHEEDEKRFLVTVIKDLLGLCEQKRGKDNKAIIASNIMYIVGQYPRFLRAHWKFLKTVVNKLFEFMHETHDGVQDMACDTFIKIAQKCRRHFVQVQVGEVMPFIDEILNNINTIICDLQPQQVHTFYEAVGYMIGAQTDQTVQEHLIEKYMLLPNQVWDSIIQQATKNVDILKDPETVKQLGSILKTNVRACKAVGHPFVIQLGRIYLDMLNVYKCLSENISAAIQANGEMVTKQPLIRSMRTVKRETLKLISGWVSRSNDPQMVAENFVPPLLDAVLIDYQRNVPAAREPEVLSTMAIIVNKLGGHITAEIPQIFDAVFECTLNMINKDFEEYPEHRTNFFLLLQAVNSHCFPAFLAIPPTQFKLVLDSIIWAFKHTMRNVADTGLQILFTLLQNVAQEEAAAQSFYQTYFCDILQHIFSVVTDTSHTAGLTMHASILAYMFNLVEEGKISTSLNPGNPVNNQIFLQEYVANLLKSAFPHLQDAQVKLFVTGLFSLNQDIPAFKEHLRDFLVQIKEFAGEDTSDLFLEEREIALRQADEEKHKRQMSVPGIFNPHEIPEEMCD
T1 sequence (O14980 whole entry): as above

SMILES: O=C(/C=C\n1cnc(-c2cc(C(F)(F)F)cc(C(F)(F)F)c2)n1)NNc1cnccn1 [KPT-330, (Z)-3-(3-(3,5-bis(trifluoromethyl)phenyl)-1H-1,2,4-triazol-1-yl)-N′-(pyrazin-2-yl)acrylohydrazide, reference compound]
- IC50 (U251): 1 µM
- EC50 (U87MG cells): 12600 nM
- Emax (U87MG cells; U87MG): 398%
- MTD (in vivo): 15 mg/kg
- HCN2 Max % inh (HCN2; Table 8): 99%
- IC50 (HCN2; Table 8): 30700 nM
- IC50 (HCN2; Table 9): 34200 nM
- IC50 (LN-229): 0.3 µM
- IC50 (HCT116; Homo sapiens, HCT-116): 2130 nM
- HCT116 Max % inh (HCT116): 98%
- IC50 (3T3-L1): > 50000 nM
- AUC ([1]; plasma, 10 mg/kg, 10 mpk): 8420 ng·h/mL
- half-life ([1]; plasma, mice or rats): 1.7 h
- Cmax [1, 3]: 2520 ng/mL
- survival in MTD study [2]: all mice were dead, or anaesthetized for the weight lost up to 20%
- IC50 (U87MG; Table 6, read-out: U87MG IC50): 129 nM
- IC50 (U87MG; Table 9, first value column, read-out: U87MG IC50): 520 nM
- IC50 (U87MG; Table 9, second value column, read-out: U87MG IC50): 710 nM
- IC50 (A-172): 224 nM
- expression of CRM1 in tumors (IHC) (CRM1): significantly decreased
- IC50 (3T3): > 50000 nM
- expression of Ki67 in tumors (IHC) (Ki67): significantly decreased
- IC50 (T98G): 0.8 µM
- IC50 (C8-B4; C8-B4): 1270 nM
- C8-B4 Max % inh (C8-B4): 100%

SMILES: NC(=O)/C(=C/n1cnc(-c2cc(C(F)(F)F)cc(S(F)(F)(F)(F)F)c2)n1)c1cncnc1 [Compound IV, (E)-3-(3-(3-(Pentafluorosulfaneyl)-5-(trifluoromethyl)phenyl)-1H-1,2,4-triazol-1-yl)-2-(pyrimidin-5-yl)acrylamide]
- IC50 (H460): 306 nM
- IC50 (A549): 1860 nM
- IC50 (H2009): 453 nM
- IC50 (KG1): 698 nM
- IC50 (MV411): 110 nM
- IC50 (THP-1): 838 nM
- Kp ([1]; brain/plasma, 5 mpk/AUC Ratio, read-out: B/P ratio): 0.29
- bioavailability ([1]; plasma, oral, mice or rats): 27%
- AUC ([1]; plasma, 10 mg/kg, 10 mpk): 1060 ng·h/mL
- half-life ([1]; plasma, mice or rats): 2.9 h
- Cmax ([1]; 5 mg/kg, 5 mpk, first number of Plasma/brain pair, read-out: Cmax/(ng/mL) Plasma): 276 ng/mL
- Cmax ([1]; 5 mg/kg, 5 mpk, second number of Plasma/brain pair, read-out: Cmax/(ng/mL) brain): 68.5 ng/mL
- Cmax [1, 3]: 312 ng/mL
- IC50 (U87MG; 72 h, U87MG, 72 hours, Table 1, read-out: Growth inhibition (IC50)): 194 nM
- IC50 (Kasumi-1): 124 nM
- IC50 (OCI-AML3): 341 nM
- IC50 (K562): 1750 nM
- EC50 (XPO1; REV-EGFP U2OS cells, 1 h, Table 2, read-out: Rev-GFP/EC50): 0.0148 µM
- IC50 (XPO1; Table 10, first (or only) value of the cell): 14.8 nM
- EC50 (XPO1; Table 13, read-out: Rev-GFP assay/μM): 0.015 µM
